# Laboratory results from US7795379B2, “Isolated nucleic acid molecules encoding cancer associated antigens, the antigens per se, and uses thereof” (Ludwig Institute for Cancer Research, priority 1999, dated 2010).
# T1: serum samples from breast cancer patients and normal serum samples (Homo sapiens, UniProt Q9BXX3)
# T1 construct: made in house
# T1 sequence (Q9BXX3 1049-1244): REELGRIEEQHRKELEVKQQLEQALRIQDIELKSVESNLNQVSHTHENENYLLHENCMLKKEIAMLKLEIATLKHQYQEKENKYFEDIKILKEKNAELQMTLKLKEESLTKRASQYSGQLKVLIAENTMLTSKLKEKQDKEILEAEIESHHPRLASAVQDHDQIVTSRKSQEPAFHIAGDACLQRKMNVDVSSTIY
# B1: amino acids 993-1188: recombinant protein consisting of amino acids 993-1188 of SEQ ID NO: 23 (NY-BR-1) (protein)
# chain: T1 sequence (Q9BXX3 1049-1244)
# B2: amino acids 405-1000: recombinant protein consisting of amino acids 405-1000 of NY-BR-1, the portion with repetitive elements (protein, UniProt Q9BXX3 405-1000, looked up, fragment)
# chain: KFTWAAKGRPRKIAWEKKETPVKTGCVARVTSNKTKVLEKGRSKMIACPTKESSTKASANDQRFPSESKQEEDEEYSCDSRSLFESSAKIQVCIPESIYQKVMEINREVEEPPKKPSAFKPAIEMQNSVPNKAFELKNEQTLRADPMFPPESKQKDYEENSWDSESLCETVSQKDVCLPKATHQKEIDKINGKLEESPNKDGLLKATCGMKVSIPTKALELKDMQTFKAEPPGKPSAFEPATEMQKSVPNKALELKNEQTLRADEILPSESKQKDYEENSWDTESLCETVSQKDVCLPKAAHQKEIDKINGKLEGSPVKDGLLKANCGMKVSIPTKALELMDMQTFKAEPPEKPSAFEPAIEMQKSVPNKALELKNEQTLRADEILPSESKQKDYEESSWDSESLCETVSQKDVCLPKATHQKEIDKINGKLEESPDNDGFLKAPCRMKVSIPTKALELMDMQTFKAEPPEKPSAFEPAIEMQKSVPNKALELKNEQTLRADQMFPSESKQKKVEENSWDSESLRETVSQKDVCVPKATHQKEMDKISGKLEDSTSLSKILDTVHSCERARELQKDHCEQRTGKMEQMKKKFCVLK
# What was measured:
# CD4^+ T cells = test: IFN-gamma ELISPOT with overlapping NY-BR-1 18-mers, CD4+ T cells of NY-BR-1 positive patients; format: cell-based, human; conditions: IFN-gamma ELISPOT after presensitization with 18-mer, numbering by SEQ ID NO: 32
# Description: (§1) CD4^+ and CD8^+ T lymphocytes were separated from PBMC of NY-BR-1 positive patients by magnetic beads (MiniMACS) and seeded into 48-well plates at a concentration of 2.5-5×10^5 cells per well in RPMI medium 1640 supplemented with 10% human serum, L-asparagine (50 mg/l), L-arginine (242 mg/l), and L-glutamine (300 mg/l). PBMC depleted of T cells were used as antigen presenting cells. After irradiation, these cells were incubated with 39 single peptides (10 μg/ml) spanning amino acids 1004-1397 of NY-BR-1(SEQ ID NO: 32) each of 18 amino acids in length and overlapping in 8 positions on each terminus, for 1 hour at room temperature and added to plates at a concentration of 1×10^6 cells per well. IL-2 and IL-4 (2.5 ng/ml and 50 U/ml, respectively) were added to CD4^+ T cell cultures, and IL-2 and IL-7 (2.5 ng/ml and 10 ng/ml, respectively) to CD8^+ T cells. Peptide specific T cell responses against the stimulating epitope were determined by IFN-gamma ELISPOT assays 6 to 12 days after presensitization.
# (§2) Flat-bottomed, 96 well nitrocellulose plates were coated with IFN-γ mAb and incubated overnight at 4° C. After washing with PBS, the plates were blocked with 10% human AB serum for 1 hour at 37° C. Presensitized CD4^+ or CD8^+ T cells from (1×10^3 to 5×10^4) and 5×10^4 peptide-pulsed APC (autologous Dendritic Cells or Epstein Barr Virus transfected B cells) were added to each well and incubated for 20 hours in RPMI medium 1640 lacking both IL-2 and human serum. Plates were then washed thoroughly with PBS to remove cells, and biotinylated IFN-γ mAbs were added to each well. After incubation for 2 hours at 37° C., the plates were washed and developed with streptavidin-alkaline phosphase for 1 hour at room temperature. After washing, substrate (5-bromo-4-chloro-3-indolyl phosphate/nitroblue tetrazolium) was added and incubated for 5 minutes.
# (§3) Both CD4^+ and CD8^+ T cells were collected from twenty patients, who had been diagnosed with cancer and expressed NY-BR-1, as determined via the methods set forth supra. These CD4^+ and CD8^+ T cells were then analyzed for spontaneous NY-BR-1 specific, CD4^+ and CD8^+ responses.
# (§4) Lymphocytes, which had been purified in accordance with the standard methods set forth supra, were presensitized with synthetic 18 mers which overlapped each other, and spanned amino acids […] of SEQ ID NO: 32.
# (§5) Following the presensitization, effector cell populations were tested for recognition of ELISPOT assays, with autologous, EBV transfected B cells, and T2 cell lines being used as the antigen presenting cells in the ELISPOT assays. ELISPOT assays were carried out as described supra.
# CD8^+ T cells = test: IFN-gamma ELISPOT with overlapping NY-BR-1 18-mers, CD8+ T cells of NY-BR-1 positive patients; format: cell-based, human; conditions: for recognized by CD8+ cells: IFN-gamma ELISPOT after presensitization with 18-mer, numbering by SEQ ID NO: 32
# Description: as §1, §2, §3, §4, §5
# CD8^+ cells = test: ELISPOT assay (interferon gamma) of CTL stimulation by NY-BR-1 peptides pulsed onto T2 cells; format: cell-based, human; conditions: peptides pulsed onto irradiated T2 cells at 10 ug/ml; CD8+ effector cells presensitized with peptide; HLA-A2
# Description: A series of peptides were synthesized, based upon the amino acid sequence of NY-BR-1, as set forth in SEQ ID NO: 23 and the concatenation of SEQ ID NOS: 30 & 23, as described supra and set forth at SEQ ID NO: 32. These were then tested for their ability to bind to HLA-A2 molecules and to stimulate CTL proliferation, using an ELISPOT assay. This assay involved coating 96-well, flat bottom nitrocellulose plates with 5 ug/ml of anti-interferon gamma antibodies in 100 ul of PBS per well, followed by overnight incubation. Purified CD8^+ cells, which had been separated from PBL samples via magnetic beads coated with anti-CD8 antibodies were then added, at 1×10^5 cells/well, in RPMI 1640 medium, that had been supplemented with 10% human serum, L-asparagine (50 mg/l), L-arginine (242 mg/l), L-glutamine (300 mg/l), together with IL-2 (2.5 ng/ml), in a final volume of 100 ul. CD8^+ effector cells were prepared by presensitizing with peptide, and were then added at from 5×103 to 2×10^4 cells/well. Peptides were pulsed onto irradiated T2 cells at a concentration of 10 ug/ml for 1 hour, washed and added to effector cells, at 5×10^4 cells/well. The plates were incubated for 16 hours at 37° C., washed six times with 0.05% Tween 20/PBS, and were then supplemented with biotinylated, anti-interferon gamma specific antibody at 0.5 ug/ml. After incubation for 2 hours at 37° C., plates were washed, and developed with commercially available reagents, for 1 hour, followed by 10 minutes of incubation with dye substrate. Plates were then prepped for counting, positives being indicated by blue spots. The number of blue spots/well was determined as the frequency of […] specific CTLs/well.
# Experiments were run, in triplicate, and total number of CTLs was calculated. As controls, one of reagents alone, effector cells alone, or antigen presenting cells alone were used. The difference between the number of positives in stimulated versus non-stimulated cells, was calculated as the effective number of peptide specific CTLs above background.
# CD8^+ T cell clones = test: T cell stimulation assay: TNF-α production by peptide/HLA-A2 specific CTL clones with COS-7 transfectants (NY-BR-1 + HLA-A2); format: cell-based, human; conditions: COS-7 cells transfected with NY-BR-1 and HLA-A2; CD8+ T cell clones of breast cancer patient NW-1100
# Description: Sequences encoding NY-BR-1 were excised from plasmid pQE9, via standard restriction enzyme digestion, and were cloned into BamHI-Hind III sites of commercially available plasmid pcDNA31 (−).
# The resulting vectors were then transfected into COS-7 cells. To accomplish this, 2×10^4COS-7 cells were admixed with 150 ng of the construct described supra, and 150 ng of plasmid pcDNA-AmpI, which contained cDNA encoding HLA-A2. The standard DE AE-dextran chloroquine method was used. Transfectants were then incubated at 37° C. for 48 hours, and then tested in a T cell stimulation assay, after 24 hours, as described infra.
# The transfectants were tested to determine if they could stimulate production of TNF-α by CTLs specific for complexes of HLA-A2 molecules and one of the peptides described supra. The CTLs used were CD8^+ T cell clones. […]
# To test if the transfectants stimulated the CD8^+ cells, 5000 of these CD8^+ cells, in 100 μl RPMI supplemented with 10% human serum, and 25 U/ml of recombinant human IL-2 were added to micowells containing the transfectants. After 24 hours, 50 μl samples of supernatant were collected, and TNFα content was determined by testing cytotoxicity against WEHI 164 clone 13 cells, in an MTT colorimetric assay, which is a standard method for showing TNFα production.
# [1] = target: T1, serum samples from breast cancer patients and normal serum samples; test: Western blotting of serum samples against recombinant NY-BR-1 protein fragments; format: binding
# Description: The frequency of antibody response against NY-BR-1 in breast cancer patients was tested. To do this, a recombinant protein consisting of amino acids 993-1188 of SEQ ID NO: 23 was prepared. (This is the protein encoded by clone BR 17-128, referred to supra). A total of 140 serum samples were taken from breast cancer patients, as were 60 normal serum samples. These were analyzed via Western blotting, using standard methods.
# An additional set of experiments was then carried out to determine if sera recognized the portion of NY-BR-1 protein with repetitive elements. To do this, a different recombinant protein, consisting of amino acids 405-1000 was made, and tested in Western blot assays.
molecule,measurement,setting,value
EDIKILKEKNAELQMTLK [p1134-1151],CD4+ cells reacted / recognized by CD4+ T cells,CD4^+ T cells,reacted
ENQKVKWEQELCSVRLTL [p1014-1031],CD4+ cells reacted / recognized by CD4+ T cells,CD4^+ T cells; listed as 1011-1021,reacted
FNYNNHLKNRIYQYEKEK [p1374-1391],CD4+ cells reacted / recognized by CD4+ T cells,CD4^+ T cells,reacted
HENENYLLHENCMLKKEI [p1094-1111],CD4+ cells reacted / recognized by CD4+ T cells,CD4^+ T cells,reacted
HIAGDACLQRKMNVDVSS [p1224-1241],recognized by CD8+ cells,CD8^+ T cells,recognized
HLLKEKNEEIFNYNNHLK [p1364-1381],CD4+ cells reacted / recognized by CD4+ T cells,CD4^+ T cells,reacted
KINLNYAGDALRENTLVS [p1264-1281],CD4+ cells reacted / recognized by CD4+ T cells,CD4^+ T cells,reacted
same,recognized by CD8+ cells,CD8^+ T cells,recognized
"LLSHGAVIEV [NY-BR-1 derived peptide, HLA-A2]",reactive in ELISPOT (peptide specific CTLs above background),CD8^+ cells,reactive
same,peptide/HLA-A2 complexes recognized by CD8+ T cells (TNFα production); naturally processed epitope,CD8^+ T cell clones,natural epitopes
LRENTLVSEHAQRDQRET [p1274-1291],recognized by CD8+ cells,CD8^+ T cells,recognized
QQQLVHAHKKADNKSKIT [p1334-1351],recognized by CD8+ cells,CD8^+ T cells,recognized
QYQEKENKYFEDIKILKE [p1124-1141],CD4+ cells reacted / recognized by CD4+ T cells,CD4^+ T cells,reacted
"SLDQKLFQL [NY-BR-1 derived peptide, HLA-A2]",reactive in ELISPOT (peptide specific CTLs above background),CD8^+ cells,reactive
"SLSKILDTV [NY-BR-1 derived peptide, HLA-A2]",reactive in ELISPOT (peptide specific CTLs above background),CD8^+ cells,reactive
same,peptide/HLA-A2 complexes recognized by CD8+ T cells (TNFα production); naturally processed epitope,CD8^+ T cell clones,natural epitopes
TSRKSQEPAFHIAGDACL [p1214-1231],recognized by CD8+ cells,CD8^+ T cells,recognized
same,HLA restriction,"CD8^+ T cells; recognized when pulsed onto T2 cells, patient 1",restricted to HLA-A2
YSGQLKVLIAENTMLTSK [p1164-1181],CD4+ cells reacted / recognized by CD4+ T cells,CD4^+ T cells,reacted
B1,reactivity of normal sera in Western blot,[1]; 60 normal serum samples,negative
same,cancer sera samples positive in Western blot,[1]; 140 serum samples from breast cancer patients,Four
B2,reactivity of the four antibody positive sera in Western blot,[1]; the four cancer sera positive for amino acids 993-1188,None of the four antibody positive sera reacted
